According to US9387216B2, “Biomarkers for treatment of neoplastic disorders using androgen-targeted therapies” (Tokai Pharmaceuticals, Inc., priority 2013, dated 2016):
Like-named read-outs stand apart in the source and are kept apart here.

Tests used:
AR nuclear translocation = AR nuclear translocation by immunocytochemistry / immunofluorescence; type: cell-based
AR activity = test: AR luciferase assay; type: cell-based
[1] = cited from earlier work
[2] = tested on: AR and prostate-specific antigen (PSA) protein expression; test: AR and PSA protein expression (western blot) in LNCaP and Enzalutamide resistant cells; type: cell-based
[3] = tested on: AR-dependent gene expression; test: AR-dependent gene expression in cells with wild-type AR and AR point mutations; type: cell-based
Excerpt: These cells also express AR receptors with F876L mutation.

full-length AR and AR-V7 = target: T1, full-length AR and AR-V7 (Homo sapiens, UniProt P10275, H875Y); type: cell-based
T1 construct: CWR22rv1 cell line which constitutively expresses both AR and AR-V7; endogenous in cells; host or cells: CWR22rv1
T1 sequence (P10275 1-920 H875Y): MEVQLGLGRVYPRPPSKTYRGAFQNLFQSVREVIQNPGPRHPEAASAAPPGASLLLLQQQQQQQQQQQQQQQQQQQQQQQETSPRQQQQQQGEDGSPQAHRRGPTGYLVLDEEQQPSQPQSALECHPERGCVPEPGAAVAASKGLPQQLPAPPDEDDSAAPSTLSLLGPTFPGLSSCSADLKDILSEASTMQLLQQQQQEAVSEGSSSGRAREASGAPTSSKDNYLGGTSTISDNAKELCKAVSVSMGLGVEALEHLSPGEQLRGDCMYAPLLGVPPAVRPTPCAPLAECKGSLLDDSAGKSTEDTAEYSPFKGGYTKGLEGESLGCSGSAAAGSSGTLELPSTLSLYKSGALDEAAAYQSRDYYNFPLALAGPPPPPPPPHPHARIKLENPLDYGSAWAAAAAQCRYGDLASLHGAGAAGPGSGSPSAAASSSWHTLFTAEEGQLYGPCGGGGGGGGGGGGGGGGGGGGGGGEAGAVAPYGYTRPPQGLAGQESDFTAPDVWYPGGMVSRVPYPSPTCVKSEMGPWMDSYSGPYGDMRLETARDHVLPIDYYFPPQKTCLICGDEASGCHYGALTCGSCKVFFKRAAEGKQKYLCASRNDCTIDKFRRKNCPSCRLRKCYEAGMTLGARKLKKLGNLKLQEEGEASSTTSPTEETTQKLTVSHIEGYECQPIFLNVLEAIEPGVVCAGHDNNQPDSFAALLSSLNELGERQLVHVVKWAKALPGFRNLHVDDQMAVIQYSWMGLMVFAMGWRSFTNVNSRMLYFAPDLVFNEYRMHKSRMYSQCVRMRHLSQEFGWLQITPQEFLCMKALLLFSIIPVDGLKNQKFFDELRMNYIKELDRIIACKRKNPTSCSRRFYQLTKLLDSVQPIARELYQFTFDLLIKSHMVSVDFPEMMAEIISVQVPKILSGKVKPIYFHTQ
Procedure: An experiment to detect expression of full-length AR and AR-V7 variant proteins was conducted in a CWR22rv1 cell line which constitutively expresses both AR and AR-V7. […] See also FIG. 4.

[4] = tested on: LuCaP136 castration resistant xenograft tumors which express AR-V7; test: Xenograft model of CRPC in mice (LuCaP136); type: in vivo
Procedure: Galeterone was tested in a xenograft model of CRPC in mice. […] AR-V7 was detected in LuCaP136 castration resistant xenograft tumors using RT-PCR.

[5] = tested on: LNCaP cells, CRPC cells, Enzalutamide resistant cell lines 49F and 49C; test: Crystal violet and MTT proliferation/viability assays in LNCaP, CRPC and Enzalutamide resistant (49C, 49F) cells; type: cell-based
CWR22rv1 cell line = test: Cell proliferation in CWR22rv1 cell line; type: cell-based
PSA levels = test: PSA response of CRPC patients by AR C-terminal status; type: in vivo, human; settings: for maximal reductions in PSA levels: patients with AR C-terminal loss
Procedure: A group of six patients naive to previous CRPC therapy was analyzed with respect to AR status. Four of the six patients were identified as having AR receptors with a C-terminal loss as determined by the evaluation of C-terminal androgen receptor expression in relation to N-terminal androgen receptor expression. All four of the patients having this AR variant had maximal reductions in PSA levels of at least 50%.

CYP17 lyase = target: T2, CYP17 lyase (Homo sapiens, UniProt P05093); settings: steroidogenic pathway; cited from earlier work
T2 sequence (P05093 1-508): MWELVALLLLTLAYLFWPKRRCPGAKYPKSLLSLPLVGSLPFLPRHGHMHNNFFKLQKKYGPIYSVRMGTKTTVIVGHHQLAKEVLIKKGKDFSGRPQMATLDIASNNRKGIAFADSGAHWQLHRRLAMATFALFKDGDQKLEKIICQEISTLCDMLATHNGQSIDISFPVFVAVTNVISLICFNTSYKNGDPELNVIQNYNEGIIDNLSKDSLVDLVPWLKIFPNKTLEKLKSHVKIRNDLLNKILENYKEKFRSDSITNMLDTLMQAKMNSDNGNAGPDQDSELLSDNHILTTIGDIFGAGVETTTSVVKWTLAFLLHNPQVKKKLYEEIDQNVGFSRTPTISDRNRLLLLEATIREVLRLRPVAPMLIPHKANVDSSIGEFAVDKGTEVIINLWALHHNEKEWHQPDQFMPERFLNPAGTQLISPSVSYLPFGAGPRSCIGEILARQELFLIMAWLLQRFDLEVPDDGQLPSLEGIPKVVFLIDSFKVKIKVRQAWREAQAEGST

[6] = enzalutamide-responsive CPRC cell line
[7] = patients expressing AR-V7 mRNA in circulating tumor cells

C[C@]1(O)CC[C@H]2[C@@H]3CCC4=CC(=O)CCC4=C3C=C[C@@]21C [Compound R1881, reference compound]
AR translocation to the nucleus (AR nuclear translocation): caused robust AR translocation to the nucleus

CNC(=O)c1ccc(N2C(=S)N(c3ccc(C#N)c(C(F)(F)F)c3)C(=O)C2(C)C)cc1F [Enzalutamide, reference compound]
AR activity (luciferase) (AR activity; [6]): reduced AR activity
patients for which PSA levels dropped by 50% ([1]; AR-V7 negative patients): 53%
time to progression ([1]; AR-V7 negative patients): 6.1 months
PSA decline [1, 7]: no PSA decline
time to progression [1, 7]: 2.1 months
AR and PSA protein expression levels ([2]; LNCaP cells): reduced AR and PSA protein expression levels

C[C@]12CC[C@H](O)CC1=CC[C@@H]1[C@@H]2CC[C@]2(C)C(n3cnc4ccccc43)=CC[C@@H]12 [Galeterone, 3-β-Hydroxyl 17-(1H-benzimidazol-1-yl)androsta-5,16-diene]
AR-dependent gene expression [3]: reduces AR-dependent gene expression
abiraterone and enzalutamide resistance due to AR splice variants (full-length AR and AR-V7): successfully overcomes abiraterone and enzalutamide resistance due to AR splice variants
AR activity (luciferase) (AR activity; Enzalutamide resistant cell lines 49C and 49F): reduced AR activity in all three cell lines
AR activity (luciferase) (AR activity; [6]): reduced AR activity in all three cell lines
AR activity (summary) (AR activity; summary of the data): strongly inhibits AR activity
response of castration resistant tumors which express AR-V7 [4]: respond
AR nuclear translocation (immunofluorescence, FIG. 15B) (AR nuclear translocation; cytoplasmic vs nuclear green staining vs. control): reduces AR nuclear translocation
anti-proliferative effects ([5]; crystal violet and MTT assays, LNCaP cells, CRPC cells, Enzalutamide resistant cells): had anti-proliferative effects
castration-resistant LNCaP growth and enzalutamide-resistant cell growth in vitro ([5]; summary of the data): suppresses castration-resistant LNCaP growth as well as enzalutamide-resistant cell growth
cell proliferation (CWR22rv1 cell line): reduces cell proliferation
AR and PSA protein expression levels ([2]; Enzalutamide resistant cell line): still observed in resistant cells
AR and PSA protein expression levels ([2]; LNCaP cells): induced a greater reduction in AR and prostate-specific antigen (PSA) protein expression
maximal reductions in PSA levels (PSA levels; 12 weeks at 2550 mg daily): at least 50%
maximal reductions in PSA levels (PSA levels; 12 weeks at 2550 mg daily, listed as galeterone): > 50%
patients with maximal PSA response (PSA levels; patients with C-terminal AR loss): 4/4
reduction in PSA (PSA levels; two patients without loss of the AR C-terminal domain, 12 weeks at 2550 mg daily): did not respond as strongly
inhibition of CYP17 lyase (CYP17 lyase): potent inhibitor
